Test results taken from PMC7933930, “Development of a small molecule that corrects misfolding and increases secretion of Z α1‐antitrypsin” (EMBO Molecular Medicine, 2021).

What was measured:
Z α1‐antitrypsin = Z α1‐antitrypsin (Homo sapiens, UniProt P01009, E366K); assay: Association kinetics by intrinsic tryptophan fluorescence (stopped flow), Z α1‐antitrypsin; assay type: binding; parameters: purified from the plasma of Z α1‐antitrypsin homozygotes; from tissue; host or cells: human plasma of Z α1-antitrypsin homozygotes
Text: The shape of the curves and native mass spectrometry (not shown) are consistent with a single high‐affinity compound binding site. No binding of the fluorescent derivative to polymers of Z α1‐antitrypsin was observed, indicating conformational selectivity for the monomeric protein (Fig 1D). The rate of interaction of the compound with the target was monitored through changes in intrinsic tryptophan fluorescence (Dafforn et al, 1999); this property was used to determine the second‐order association rate constants for GSK716 binding to Z (4.1 × 10^4 M^−1 s^−1) and M α1‐antitrypsin (2.1 × 10^2 M^−1 s^−1; Fig 1E and F). […] Therefore, the selectivity of the compound for Z over M α1‐antitrypsin is dominated by the difference in the rate of association rather than dissociation.
Kinetic parameters of GSK716 binding to M, Z, S (Glu264Val) and Baghdad (Ala336Pro) (Haq et al, 2016) α1‐antitrypsin were measured by detecting intrinsic tryptophan fluorescence of the protein (excitation at 280 nm and detection of emission at 320 nm) on a stopped flow apparatus (Applied Photophysics) (Kim & Yu, 1996; Dafforn et al, 1999). A competition assay for binding to M α1‐antitrypsin and Z α1‐antitrypsin and Z α1‐antitrypsin polymers (Lomas et al, 1993; Irving et al, 2011; Haq et al, 2013), based on an Alexa488‐labelled analogue of GSK716 (A488‐GSK716), was used to determine the binding affinity of test compounds.

Serotonin 5HT1B = Serotonin 5HT1B (Homo sapiens, UniProt P28222); assay: Off‐target panel: Serotonin 5HT1B (DRX); assay type: cell-based
Experimental: (§1) GSK716 selectivity and PK properties were profiled in order to investigate the suitability of GSK716 for progression into in vivo studies and the potential for taking it forward as a clinical candidate for testing in humans. Since GSK716 results in loss of inhibitory activity of α1‐antitrypsin, the effect of the compound was assessed on other closely related serpins. […] Furthermore, there were no off‐target effects in a panel of assays considered predictive of known safety liabilities that precluded further development of GSK716 (Table EV1).

NaV1.5 = NaV1.5 (Homo sapiens, UniProt Q14524); assay: Off‐target panel: NaV1.5 (IonWorks); assay type: cell-based
Experimental: as §1

[1] = test system: Z α1‐antitrypsin in CHO‐K1 Tet‐On cells; assay: Pulse‐chase of Z α1‐antitrypsin in CHO‐K1 Tet‐On cells; assay type: cell-based; details: 10 μM GSK716
Experimental: Figure 2 GSK716 inhibits polymerisation of Z α1‐antitrypsin in cell models of disease • A GSK716 was added to CHO‐TET‐ON‐Z‐A1AT cells (Ordóñez et al, 2013) with simultaneous induction of Z α1‐antitrypsin expression using doxycycline, and polymer load was quantified with the 2C1 monoclonal antibody that is specific to pathological polymers of α1‐antitrypsin (Miranda et al, 2010). […] Data were normalised to vehicle and a control compound from the GSK716 series at saturating concentration. […] It induced an approximately threefold increase in secreted levels of Z α1‐antitrypsin compared with vehicle control. This was apparent even after polymers had been allowed to form. Scale bar: 100 µm. Data presented as mean ± SD, n = 8 (secretion) and n = 6 (polymer inhibition). • E CHO tetracycline‐inducible cells expressing Z α1‐antitrypsin were induced with 0.5 μg/ml doxycycline for 48 h and treated with 10 μM GSK716. […] For every time point, NP‐40‐soluble and NP‐40‐insoluble fractions were separated and immunoprecipitated with the 2C1 mAb and resolved by 4–12% w/v SDS–PAGE and α1‐antitrypsin detected by immunoblotting. […] Cell viability was measured by Cell Counting Kit‐8. […] Samples were resolved by 4–12% w/v acrylamide SDS–PAGE and detected by autoradiography. • H The graphs show the effect of GSK716 on intracellular and extracellular Z α1‐antitrypsin (mean ± SEM, n = 2). […]

Chain of Z α1‐antitrypsin (P01009 25-418 E366K): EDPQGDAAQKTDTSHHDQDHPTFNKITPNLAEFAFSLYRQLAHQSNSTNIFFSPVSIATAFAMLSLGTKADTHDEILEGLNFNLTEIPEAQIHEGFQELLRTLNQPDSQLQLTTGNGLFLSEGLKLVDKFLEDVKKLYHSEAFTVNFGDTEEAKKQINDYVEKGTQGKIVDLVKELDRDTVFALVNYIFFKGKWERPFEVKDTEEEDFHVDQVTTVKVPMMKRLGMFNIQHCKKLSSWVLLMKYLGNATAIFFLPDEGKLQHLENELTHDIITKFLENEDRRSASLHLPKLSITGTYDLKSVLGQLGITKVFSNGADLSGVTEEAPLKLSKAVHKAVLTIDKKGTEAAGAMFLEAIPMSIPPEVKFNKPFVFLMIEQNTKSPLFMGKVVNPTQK
Chain of Serotonin 5HT1B (P28222 whole entry): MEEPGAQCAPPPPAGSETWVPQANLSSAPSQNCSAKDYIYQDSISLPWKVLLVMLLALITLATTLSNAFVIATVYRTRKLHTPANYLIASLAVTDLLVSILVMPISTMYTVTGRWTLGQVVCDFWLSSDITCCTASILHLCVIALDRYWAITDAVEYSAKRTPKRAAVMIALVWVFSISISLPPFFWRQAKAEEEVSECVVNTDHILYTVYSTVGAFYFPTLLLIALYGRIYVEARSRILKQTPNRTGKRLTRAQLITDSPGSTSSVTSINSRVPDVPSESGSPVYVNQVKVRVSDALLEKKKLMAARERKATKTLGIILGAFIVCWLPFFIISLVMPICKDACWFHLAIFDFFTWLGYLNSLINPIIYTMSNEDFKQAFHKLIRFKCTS
Chain of NaV1.5 (Q14524 whole entry): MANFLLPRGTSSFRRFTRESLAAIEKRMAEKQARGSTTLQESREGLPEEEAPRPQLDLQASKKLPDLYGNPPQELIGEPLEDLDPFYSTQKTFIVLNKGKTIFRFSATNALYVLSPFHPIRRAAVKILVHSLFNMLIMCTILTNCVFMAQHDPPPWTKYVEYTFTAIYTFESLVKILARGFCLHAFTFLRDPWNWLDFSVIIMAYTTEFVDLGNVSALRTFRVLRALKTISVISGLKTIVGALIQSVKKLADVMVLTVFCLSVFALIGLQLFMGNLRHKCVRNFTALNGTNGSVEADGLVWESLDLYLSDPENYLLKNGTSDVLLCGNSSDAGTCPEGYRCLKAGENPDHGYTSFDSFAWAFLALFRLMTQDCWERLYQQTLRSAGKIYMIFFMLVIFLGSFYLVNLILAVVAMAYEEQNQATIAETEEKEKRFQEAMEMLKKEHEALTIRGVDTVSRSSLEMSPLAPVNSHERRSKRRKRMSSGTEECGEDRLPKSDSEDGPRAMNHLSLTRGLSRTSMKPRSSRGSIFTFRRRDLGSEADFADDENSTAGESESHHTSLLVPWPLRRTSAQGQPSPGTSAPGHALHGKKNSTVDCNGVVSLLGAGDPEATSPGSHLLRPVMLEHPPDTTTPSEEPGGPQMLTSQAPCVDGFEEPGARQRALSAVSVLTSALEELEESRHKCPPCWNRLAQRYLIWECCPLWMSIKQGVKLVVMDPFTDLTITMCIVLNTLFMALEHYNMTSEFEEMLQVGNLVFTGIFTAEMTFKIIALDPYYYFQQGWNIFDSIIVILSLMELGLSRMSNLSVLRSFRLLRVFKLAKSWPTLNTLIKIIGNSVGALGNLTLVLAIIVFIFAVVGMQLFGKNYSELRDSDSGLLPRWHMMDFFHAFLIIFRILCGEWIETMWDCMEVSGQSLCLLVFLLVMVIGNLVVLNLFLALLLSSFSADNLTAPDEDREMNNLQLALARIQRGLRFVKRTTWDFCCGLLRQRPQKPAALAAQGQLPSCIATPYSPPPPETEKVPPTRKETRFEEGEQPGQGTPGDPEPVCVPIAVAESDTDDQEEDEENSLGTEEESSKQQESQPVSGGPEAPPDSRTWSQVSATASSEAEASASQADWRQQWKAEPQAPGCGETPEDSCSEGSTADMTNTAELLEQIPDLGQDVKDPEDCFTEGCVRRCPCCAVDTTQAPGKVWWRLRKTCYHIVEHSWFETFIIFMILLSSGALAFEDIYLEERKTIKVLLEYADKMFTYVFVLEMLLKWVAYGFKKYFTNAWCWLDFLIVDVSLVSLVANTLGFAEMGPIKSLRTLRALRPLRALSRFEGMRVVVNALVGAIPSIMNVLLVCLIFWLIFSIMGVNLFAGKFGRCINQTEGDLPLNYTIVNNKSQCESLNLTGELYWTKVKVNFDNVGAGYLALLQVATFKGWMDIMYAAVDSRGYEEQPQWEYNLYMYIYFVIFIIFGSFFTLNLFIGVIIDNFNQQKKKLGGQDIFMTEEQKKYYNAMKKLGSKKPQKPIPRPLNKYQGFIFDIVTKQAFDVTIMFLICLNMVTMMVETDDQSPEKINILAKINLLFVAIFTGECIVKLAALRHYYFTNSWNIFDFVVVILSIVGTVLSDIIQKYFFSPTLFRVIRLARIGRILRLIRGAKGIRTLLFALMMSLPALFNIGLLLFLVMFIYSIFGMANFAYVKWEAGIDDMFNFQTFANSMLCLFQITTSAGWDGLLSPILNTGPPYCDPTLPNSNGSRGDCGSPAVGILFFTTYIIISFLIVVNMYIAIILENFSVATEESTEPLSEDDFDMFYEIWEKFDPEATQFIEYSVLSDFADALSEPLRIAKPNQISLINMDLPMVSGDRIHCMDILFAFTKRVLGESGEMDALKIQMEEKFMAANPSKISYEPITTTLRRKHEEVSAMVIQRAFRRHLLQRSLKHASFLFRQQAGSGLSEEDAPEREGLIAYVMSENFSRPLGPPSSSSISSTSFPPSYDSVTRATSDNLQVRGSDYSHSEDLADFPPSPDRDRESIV

SMILES: CCC[C@@H](NC(=O)c1cccc2c1CC(=O)N2)[C@@H](O)c1cccc(F)c1C [GSK716]
- time of change in Z α1‐antitrypsin fluorescence on association (faster than dead‐time of the apparatus) (Z α1‐antitrypsin; 10 µM GSK716, 0.2 mg/ml protein): < 10 s
- koff (Z α1‐antitrypsin; Z α1‐antitrypsin, calculated from association rate constant and affinity, read-out: first‐order dissociation rate constant): 6.1e-05 s⁻¹
- kon (Z α1‐antitrypsin; Z α1‐antitrypsin, read-out: second‐order association rate constant): 41000 M⁻¹ s⁻¹
- EC50 (Serotonin 5HT1B): > 100 µM
- IC50 (Serotonin 5HT1B): > 100 µM
- IC50 (NaV1.5): 79.4 µM
- intracellular polymers, clearance and secretion in pulse‐chase [1]: abolished intracellular polymers
